Test system: An. quadrimaculatus
Assay: in vitro Klun and Debboun (K&D) biting deterrent bioassay
Format: in vivo, Anopheles quadrimaculatus
Experimental: Experiments were conducted by using a six-celled in vitro Klun and Debboun (K&D) module bioassay system developed by Klun et al. (2005) for quantitative evaluation of biting deterrence. Briefly, the assay system consists of a six well reservoir with each of the 3×4 cm wells containing 6 mL of blood or feeding solution. As described by Ali et al. (2012), a feeding solution consisting of CPDA-1 and ATP was used instead of blood. Green fluorescent tracer dye (www.blacklightworld.com) was used to determine the feeding by the females. Carrot seed essential oil was initially tested to determine the biting deterrent activity. […] Essential oil and carotol were further tested against Ae. aegypti and An. quadrimaculatus in this bioassay. Treatments of carrot seed essential oil at 10 μg/cm^2 and carotol were tested at 10 and 5 μg/cm^2, whereas DEET (97% N,N-diethyl-meta-toluamide) (Sigma Aldrich, St. Louis, Mo.) at 25 nmol/cm^2 was used as positive control. All the treatments were freshly prepared in molecular biology grade 100% ethanol (Fisher Scientific Chemical Co. Fairlawn, N.J.) at the time of bioassay.
The temperature of the solution in the reservoirs was maintained at 37° C. by continuously passing warm water through the reservoir using a circulatory bath. The reservoirs were covered with a layer of collagen membrane (Devro, Sandy Run, S.C.). The test compounds were randomly applied to six 4×5 cm areas of organdy cloth and positioned over the membrane-covered CPDA-1+ATP solution with a Teflon® separator placed between the treated cloth and the six-celled module to prevent the contamination of the module. […] The number of mosquitoes biting through organdy treatments in each cell was recorded after a 3 minute exposure, and mosquitoes were prodded back into the cells to check the actual feeding. […] Proportion not biting (PNB) was calculated using the procedure described by Ali et al. (2012).

CC1=CC[C@]2(C)CC[C@@H](C(C)C)[C@]2(O)CC1 [carotol]
proportion not biting (PNB) (25 nmol/cm^2): 0.72
proportion not biting (PNB) (10 μg/cm^2): 0.78
biting deterrent activity (compared with DEET): comparable to DEET
